From article PMC6796659, “Topoisomerase IB poisons induce histone H2A phosphorylation as a response to DNA damage in Leishmania infantum” (International Journal for Parasitology: Drugs and Drug …, 2019)

Tests used:
[1] = tested on: TopIB-DNA complexes in L. infantum promastigotes; experiment: SDS/K-DNA precipitation (in situ cleavage complex formation); assay type: cell-based, Leishmania infantum; conditions: highest concentration 30 μM, 30 min, data not shown
Experimental: In order to measure the fragmentation of DNA induced by Top poisons, L. infantum promastigotes, previously labeled with 0.5 mCi/mL [2–^14C] thymidine for 24 h, were exposed to different concentrations of indenoisoquinolines for 30 min, followed by precipitation with SDS/KCl, according to the method described previously ([Balaña-Fouce et al., 2012]). DNA fragmentation was determined as the percentage of total labeled DNA, and was calculated as follows: [(dpm in SDS/KCl drug - dpm in SDS/KCl solvent)/(dpm total incorporation)] x 100. Each experiment was run at least in triplicate.

[2] = tested on: iRFP L. infantum promastigotes; experiment: Antileishmanial activity on free-living iRFP L. infantum promastigotes (infrared fluorescence viability); assay type: cell-based; conditions: Leishmania infantum, 72 h, 26 °C
Experimental: Histone phosphorylation assays were performed in promastigotes of L. infantum BCN 150 strain, whereas the antiparasitic activity of the compounds was assessed on the transgenic strain that constitutively expresses the irfp gene encoding the infrared iRFP protein (iRFP L. infantum strain) ([Calvo-Álvarez et al., 2015]), which is derived from L. infantum BCN 150. Both strains were grown at 26 °C in M-199 medium (Gibco) supplemented with 25 mM HEPES pH 7.2, 0.1 mM adenine, 0.0005% (w/v) hemin, 2 μg/mL biopterin, 0.0001% (w/v) biotin, 10% (v/v) heat-inactivated fetal bovine serum (FBS) and an antibiotic cocktail comprising 50 U/mL penicillin and 50 μg/mL streptomycin.
(§1) The antileishmanial activity of the compounds was tested both in promastigotes and in amastigotes infecting mouse splenocytes. For this purpose, 384-well optical bottom black plates (Thermo Scientific) were seeded either with free-living iRFP L. infantum promastigotes or with splenic explants infected with iRFP L. infantum amastigotes, which were incubated at 26 °C or 37 °C, respectively. The viability of both iRFP L. infantum stages was measured by recording the fluorescence emitted by viable cells at 708 nm in an Odyssey (Li-Cor) infrared imaging system after a 72-h period of incubation with different concentrations of the compounds. Dose-response curves were obtained by plotting the infrared fluorescence emission of viable parasites vs. different concentrations of testing compounds and were fitted by nonlinear analysis using the Sigma-Plot 10.0 statistical package. The reduction of infrared emission with respect to the negative control was used to determine the 50% effective concentration to kill the parasites (EC50). Both controls and treated groups were tested with DMSO (drug vehicle) concentrations below 0.1%. All compounds and controls were assayed in triplicate.

[3] = tested on: Leishmania topoisomerase IB (LTopIB); experiment: Relaxation of supercoiled pSK DNA by recombinant LTopIB; assay type: biochemical; conditions: Table 1
Experimental: Expression and purification of LTopIB and hTopIB were carried out according to a previously standardized protocol ([Villa et al., 2003]). The effect of indenoisoquinolines (compounds 1 to 20) on recombinant LTopIB and hTopIB was determined by measuring the relaxation of negatively supercoiled pBluescript-SK DNA plasmid (pSK). Briefly, in a total volume of 20 μL, 100 U of recombinant TopIB were incubated with 0.5 μg of pSK DNA in 10 mM Tris-HCl buffer (pH 7.5), 5 mM MgCl2, 5 mM dithiothreitol (DTT), 0.1 mM EDTA, […] bovine serum albumin, and 150 mM KCl. Different concentrations of indenoisoquinolines were also added. Following a 4-min incubation period at 25 °C, reactions were stopped with 1% (w/v) SDS, and incubated for one extra hour at 37 °C in the presence of 1 mg/mL proteinase K. Subsequently, samples were extracted with 1 vol phenol-chloroform mixture and were loaded on a 1% agarose gel containing 0.1 μg/mL ethidium bromide. The gel was run for 16 h at 4 V/cm, and the images were acquired using a G-Box system (Syngene, United Kingdom).

[4] = Cytotoxicity on uninfected mouse splenocytes (Alamar Blue); assay type: cell-based; conditions: BALB/c, freshly isolated uninfected mouse splenocytes, non-infected mouse splenocytes, read-out: CC50 (μM) Murine Splenocytes
Experimental: Finally, the cytotoxicity of the compounds was assessed on freshly-isolated mouse splenocytes, which were obtained from uninfected BALB/c mice according to the protocol previously described. Viability of uninfected splenocytes was used to determine the cytotoxic concentration 50 (CC50) by means of the Alamar Blue staining method, according to manufacturer's recommendations (Invitrogen). Selectivity index (SI) for each compound was calculated as the ratio between the CC50 value obtained for splenic cells and the EC50 value for amastigotes.

[5] = tested on: iRFP L. infantum amastigotes infecting mouse splenocytes; experiment: Antileishmanial activity on iRFP L. infantum amastigotes in ex vivo murine splenic explants; assay type: cell-based, Leishmania infantum
Experimental: Five-week BALB/c female mice infected intraperitoneally with 1.5 × 10^9 metacyclic iRFP L. infantum promastigotes were sacrificed to eviscerate their spleens, which were processed to obtain a suspension of primary splenocytes. Briefly, freshly dissected spleens were washed with cold phosphate-buffered saline (PBS), cut in small pieces and incubated for 20 min with 5 mL of 2 mg/mL collagenase D (Sigma) prepared in buffer (10 mM HEPES, pH 7.4, 150 mM NaCl, 5 mM KCl, 1 mM MgCl2 and 1.8 mM CaCl2). Then, the cell suspension was passed through a 100 μm cell strainer, harvested by centrifugation (500×g for 7 min at 4 °C), washed twice with PBS, and resuspended in RPMI medium (Gibco) supplemented with 10 mM HEPES, 1 mM sodium pyruvate, 1xRPMI 1640 vitamin mix, 10% (v/v) FBS, 50 U/mL penicillin and 50 μg/mL streptomycin. The cell suspension was cultured in 384-well optical bottom black plates (Thermo Scientific) at 37 °C under 5% CO2 atmosphere.
as §1

[6] = tested on: L. infantum promastigotes; experiment: Cell cycle analysis by flow cytometry (propidium iodide); assay type: cell-based, Leishmania infantum; conditions: 1 μM single dose, 0, 8, 24, 48 h
Experimental: One million promastigotes untreated or treated with 1 μM of different indenoisoquinolines were harvested by centrifugation after 0, 8, 24 and 48 h exposure. Promastigotes were washed twice with PBS and fixed by 1 h incubation with 70% methanol at 4 °C. After incubation, cells were centrifuged, washed again with PBS and resuspended in 0.5 mL of citrate buffer (45 mM MgCl2, 20 mM MOPS, 30 mM sodium citrate, 0.1% Triton X-100, pH = 7). Finally, samples with RNAase (50 μg/mL) and propidium iodide ([…]) were incubated at 37 °C during 30 min and analyzed at 589 nm by flow cytometry (Cyan ADP Dako).

NCCCn1c2c(c3ccccc3c1=O)C(=O)c1ccccc1-2 [Compound 2]
protein-DNA complexes (SDS/K-DNA precipitable) [1]: 10% | EC50 [2]: 0.34 ± 0.03 µM | LTopIB inhibition [3]: +++ (inhibition at 1 μM) | CC50 [4]: 0.59 ± 0.28 µM | SI (Selectivity Index) ([5]; CC50 (splenocytes)/EC50 (amastigotes)): 4.9 | EC50 ([5]; Leishmania infantum, Splenocyte, splenic-infecting iRFP L. infantum amastigotes, 72 h, 37 °C, read-out: EC50 (μM) L. infantum amastigotes): 0.12 ± 0.05 µM | effect on cell cycle of promastigotes [6]: did not arrest the cell cycle
